Measurements taken from patent publication US20230144845A1 (The Regents of the University of California, priority 2016, published 2023).
“Also recorded” adds a separate entry of the source.

How the values were obtained:
Type in all cases: in vivo
C. elegans = assay: Lifespan of adult worms (C. elegans); conditions: P<0.0001 (log-rank test) vs vehicle
6-week old C57/B6 mice [1] = assay: Topical treatment of shaved dorsal skin of young mice: pigmentation and hair growth; conditions: 16 mM in Transdermal Gel, topical every other day, vs control
Experimental: Mice were topically (unless indicated otherwise) treated every other day with the indicated amount and photos were taken every week. Mice were monitored for the appearance of skin pigmentation, signaling the initiation of anagen. No hair growth (and no pigmentation) was assigned the arbitrary value of 0. Skin darkening was given a value from 0 to 100%, with the higher number indicating darker skin and visible hair growth.
Compounds were dissolved in Transdermal Gel at 16 mM and applied on mice dorsal skin every other day. To show the pigmentation progression, the appearance of skin pigmentation, signaling the initiation of anagen, was assigned an arbitrary value based on skin darkening. No hair growth (and no pigmentation) was assigned a value of 0 and darker skin/visible hair growth was assigned with higher numbers. Photos were taken weekly to document the pigmentation/hair changes.
Dorsal hair was shaved by trimmer at Week 7 and α-KB acid was dissolved in Transdermal Gel at 16 mM and applied on mice dorsal skin every other day.

[2] = test system: 101-week old C57BL/6J mice; assay: Oral α-KB in drinking water in aged mice: survival, aging traits, hair
Experimental: (§1) Additionally, α-KG was administrated in drinking water to 6-week old C57/B6 mice for 10 weeks. α-KG was dissolved at 16 mM and water was changed every other day to ensure the integrity of the compound. Oral administration of α-KB was tested in 101-week old C57/B6 mice and lasted for 30 weeks. The concentration of α-KB was 8 mM and water was changed weekly. Pigmentation/hair changes were also monitored by assigning arbitrary values and photos.
Based on the lifespan extending effects of α-KB in C. elegans (FIG. 2), the anti-aging properties in mice were examined. Aged 101-week old C57BL/6J mice were treated with 8 mM α-KB acid dissolved in drinking water for up to 30 weeks.

6-week old C57/B6 mice [3] = assay: Oral α-KG in drinking water in young mice: hair growth; conditions: 16 mM in drinking water, 10 weeks, vs negative controls
Experimental: as §1

| SMILES | mean lifespan (days of adulthood) (C. elegans) | hair growth (6-week old C57/B6 mice [1]) | skin pigmentation (initiation of anagen) (6-week old C57/B6 mice [1]) | aging traits (such as cataracts) ([2]; aged mice, 8 mM in drinking water) | age-related hair loss / hair pigmentation and density on dorsal skin ([2]; aged mice, not shaved, 8 mM in drinking water, vs control) | lifespan / survival of old male mice ([2]; old male C57BL/6J mice, 8 mM in drinking water from 101 weeks for up to 30 weeks, P=0.0476 (Fisher's exact test)) | hair growth after oral administration (6-week old C57/B6 mice [3]) |
| --- | --- | --- | --- | --- | --- | --- | --- |
| CC[C@H](O)C(=O)O [2-HB, 2-hydroxybutyrate] | 19.8 days of adulthood | had hair growing back faster; also recorded: accelerated pigmentation and hair growth on Day 14 | showed pigmentation earlier; also recorded: pigmentation improved; also recorded: accelerated pigmentation | – | – | – | – |
| CCC(=O)C(=O)O [α-KB, alpha-ketobutyrate] | 22.4 days of adulthood | hair growth was accelerated; also recorded: stimulates hair growth by Day 14 | started to show pigmentation patches after one week; also recorded: improved pigmentation | prevented aging traits in aged mice | exhibited black and thick hair; also recorded: delays or reduces age-related hair loss | significantly increased survival to beyond 131 weeks of age in male animals; also recorded: increases the lifespan of old male C57BL/6J mice | – |
| O=C(O)CCC(=O)C(=O)O [α-KG, alpha-ketoglutarate] | 26.1 days of adulthood | – | – | – | – | – | confirmed its effects for hair growth; also recorded: significantly induces hair growth |
